Measurements reported in PubChem BioAssay AID1259407 (Chemical Carcinogenesis Research Information System (CCRIS), 2018).
The source made the active and inactive calls. The rule behind the calls is not given here.

Tested on: CCRIS mutagenicity, Ames/micronucleus/aberration tests
Assay: CCRIS mutagenicity studies
[1] = Test System: AMES SALMONELLA TYPHIMURIUM, Strain/Indicator: TA98, Metabolic Activation: RAT, LIVER, S-9, AROCLOR 1254, Method: STANDARD PLATE
[2] = Test System: AMES SALMONELLA TYPHIMURIUM, Strain/Indicator: TA100, Metabolic Activation: NONE, Method: STANDARD PLATE
[3] = Test System: AMES SALMONELLA TYPHIMURIUM, Strain/Indicator: TA100, Metabolic Activation: RAT, LIVER, S-9, AROCLOR 1254, Method: STANDARD PLATE

Question: Which results are given for `Nc1ccc(Cl)c(N)c1`?
Answer: mutagenic call (End Point: IN VITRO CHROMOSOMAL ABERRATIONS, Test System: CHL CELLS, Metabolic Activation: RAT, LIVER, S-9, SODIUM PHENOBARBITAL AND 5,6-BENZOFLAVONE): active; positive (structural changes); mutagenic call (End Point: IN VITRO CHROMOSOMAL ABERRATIONS, Test System: CHO-LB CELLS, Metabolic Activation: RAT, LIVER, S-9, AROCLOR 1254): inactive; negative; mutagenic call (Test System: AMES SALMONELLA TYPHIMURIUM, Strain/Indicator: TA98, Metabolic Activation: HAMSTER, LIVER, S-9, AROCLOR 1254, Method: STANDARD PLATE): active; positive; mutagenic call (Test System: AMES SALMONELLA TYPHIMURIUM, Strain/Indicator: TA98, Metabolic Activation: HAMSTER, LIVER, S-9, Method: STANDARD PLATE): active; positive; mutagenic call (Test System: AMES SALMONELLA TYPHIMURIUM, Strain/Indicator: TA98, Metabolic Activation: MOUSE, LIVER, S-9, AROCLOR 1254, Method: STANDARD PLATE): active; positive; mutagenic call (Test System: AMES SALMONELLA TYPHIMURIUM, Strain/Indicator: TA98, Metabolic Activation: MOUSE, LIVER, S-9, Method: STANDARD PLATE): active; positive; mutagenic call [1]: active; positive; mutagenic call (Test System: AMES SALMONELLA TYPHIMURIUM, Strain/Indicator: TA98, Metabolic Activation: RAT, LIVER, S-9, Method: STANDARD PLATE): active; positive; mutagenic call (Test System: AMES SALMONELLA TYPHIMURIUM, Strain/Indicator: TA100, Metabolic Activation: HAMSTER, LIVER, S-9, AROCLOR 1254, Method: STANDARD PLATE): active; positive; mutagenic call [2]: inactive; negative; mutagenic call [3]: active; positive; mutagenic call (Test System: AMES SALMONELLA TYPHIMURIUM, Strain/Indicator: TA1535, Metabolic Activation: HAMSTER, LIVER, S-9, AROCLOR 1254, Method: STANDARD PLATE): inactive; negative; mutagenic call (Test System: AMES SALMONELLA TYPHIMURIUM, Strain/Indicator: TA1535, Metabolic Activation: HAMSTER, LIVER, S-9, Method: STANDARD PLATE): inactive; negative; mutagenic call (Test System: AMES SALMONELLA TYPHIMURIUM, Strain/Indicator: TA1535, Metabolic Activation: MOUSE, LIVER, S-9, AROCLOR 1254, Method: STANDARD PLATE): inactive; negative; mutagenic call (Test System: AMES SALMONELLA TYPHIMURIUM, Strain/Indicator: TA1535, Metabolic Activation: MOUSE, LIVER, S-9, Method: STANDARD PLATE): inactive; negative; mutagenic call (Test System: AMES SALMONELLA TYPHIMURIUM, Strain/Indicator: TA1535, Metabolic Activation: NONE, Method: STANDARD PLATE): inactive; negative; mutagenic call (Test System: AMES SALMONELLA TYPHIMURIUM, Strain/Indicator: TA1535, Metabolic Activation: RAT, LIVER, S-9, Method: STANDARD PLATE): inactive; negative; mutagenic call (Test System: AMES SALMONELLA TYPHIMURIUM, Strain/Indicator: TA1537, Metabolic Activation: HAMSTER, LIVER, S-9, AROCLOR 1254, Method: STANDARD PLATE): active; positive; mutagenic call (Test System: AMES SALMONELLA TYPHIMURIUM, Strain/Indicator: TA1537, Metabolic Activation: HAMSTER, LIVER, S-9, Method: STANDARD PLATE): active; positive; mutagenic call (Test System: AMES SALMONELLA TYPHIMURIUM, Strain/Indicator: TA1537, Metabolic Activation: MOUSE, LIVER, S-9, AROCLOR 1254, Method: STANDARD PLATE): active; positive; mutagenic call (Test System: AMES SALMONELLA TYPHIMURIUM, Strain/Indicator: TA1537, Metabolic Activation: NONE, Method: STANDARD PLATE): inactive; negative; mutagenic call (Test System: AMES SALMONELLA TYPHIMURIUM, Strain/Indicator: TA1537, Metabolic Activation: RAT, LIVER, S-9, AROCLOR 1254, Method: STANDARD PLATE): active; positive; mutagenic call (Test System: AMES SALMONELLA TYPHIMURIUM, Strain/Indicator: TA1537, Metabolic Activation: RAT, LIVER, S-9, Method: STANDARD PLATE): inactive; negative; mutagenic call (Test System: AMES SALMONELLA TYPHIMURIUM, Strain/Indicator: TA1538, Metabolic Activation: HAMSTER, LIVER, S-9, AROCLOR 1254, Method: STANDARD PLATE): active; positive; mutagenic call (Test System: AMES SALMONELLA TYPHIMURIUM, Strain/Indicator: TA1538, Metabolic Activation: HAMSTER, LIVER, S-9, Method: STANDARD PLATE): active; positive; mutagenic call (Test System: AMES SALMONELLA TYPHIMURIUM, Strain/Indicator: TA1538, Metabolic Activation: MOUSE, LIVER, S-9, AROCLOR 1254, Method: STANDARD PLATE): active; positive; mutagenic call (Test System: AMES SALMONELLA TYPHIMURIUM, Strain/Indicator: TA1538, Metabolic Activation: MOUSE, LIVER, S-9, Method: STANDARD PLATE): active; positive; mutagenic call (Test System: AMES SALMONELLA TYPHIMURIUM, Strain/Indicator: TA1538, Metabolic Activation: RAT, LIVER, S-9, AROCLOR 1254, Method: STANDARD PLATE): active; positive; mutagenic call (Test System: AMES SALMONELLA TYPHIMURIUM, Strain/Indicator: TA1538, Metabolic Activation: RAT, LIVER, S-9, Method: STANDARD PLATE): active; positive; mutagenic call (Test System: E. COLI, Strain/Indicator: WP2 UVRA, Metabolic Activation: HAMSTER, LIVER, S-9, AROCLOR 1254, Method: STANDARD PLATE): inactive; negative; mutagenic call (Test System: E. COLI, Strain/Indicator: WP2 UVRA, Metabolic Activation: HAMSTER, LIVER, S-9, Method: STANDARD PLATE): inactive; negative; mutagenic call (Test System: E. COLI, Strain/Indicator: WP2 UVRA, Metabolic Activation: MOUSE, LIVER, S-9, AROCLOR 1254, Method: STANDARD PLATE): inactive; negative; mutagenic call (Test System: E. COLI, Strain/Indicator: WP2 UVRA, Metabolic Activation: MOUSE, LIVER, S-9, Method: STANDARD PLATE): inactive; negative; mutagenic call (Test System: E. COLI, Strain/Indicator: WP2 UVRA, Metabolic Activation: NONE, Method: STANDARD PLATE): inactive; negative; mutagenic call (Test System: E. COLI, Strain/Indicator: WP2 UVRA, Metabolic Activation: RAT, LIVER, S-9, AROCLOR 1254, Method: STANDARD PLATE): inactive; negative; mutagenic call (Test System: E. COLI, Strain/Indicator: WP2 UVRA, Metabolic Activation: RAT, LIVER, S-9, Method: STANDARD PLATE): inactive; negative

Question: Which mutagenic call (Test System: AMES SALMONELLA TYPHIMURIUM, Strain/Indicator: TA97, Metabolic Activation: RAT, LIVER, S-9, AROCLOR 1254, Method: STANDARD PLATE) does the source give for `O=c1[nH]c2c(c(=O)n1C1CCCCC1)CCC2` here?
Answer: Its mutagenic call is “inactive; negative”.

Question: And the mutagenic call (Test System: AMES SALMONELLA TYPHIMURIUM, Strain/Indicator: TA97, Metabolic Activation: RAT, LIVER, S-9, AROCLOR 1254 AND NADPH, Method: STANDARD PLATE)?
Answer: The mutagenic call was “inactive; negative”.

Question: And the mutagenic call [1]?
Answer: Its mutagenic call is “inactive; negative”.

Question: And the mutagenic call (Test System: AMES SALMONELLA TYPHIMURIUM, Strain/Indicator: TA98, Metabolic Activation: RAT, LIVER, S-9, AROCLOR 1254 AND NADPH, Method: STANDARD PLATE)?
Answer: The mutagenic call was “inactive; negative”.

Question: And the mutagenic call [3]?
Answer: Its mutagenic call is “inactive; negative”.

Question: And the mutagenic call (Test System: AMES SALMONELLA TYPHIMURIUM, Strain/Indicator: TA100, Metabolic Activation: RAT, LIVER, S-9, AROCLOR 1254 AND NADPH, Method: STANDARD PLATE)?
Answer: The mutagenic call was “inactive; negative”.

Question: And the mutagenic call (Test System: AMES SALMONELLA TYPHIMURIUM, Strain/Indicator: TA102, Metabolic Activation: RAT, LIVER, S-9, AROCLOR 1254, Method: STANDARD PLATE)?
Answer: The mutagenic call was “inactive; negative”.

Question: What about the mutagenic call (Test System: AMES SALMONELLA TYPHIMURIUM, Strain/Indicator: TA102, Metabolic Activation: RAT, LIVER, S-9, AROCLOR 1254 AND NADPH, Method: STANDARD PLATE) of the same compound?
Answer: Its mutagenic call is “inactive; negative”.

Question: `Cn1c2ccccc2c2ccc([N+](=O)[O-])cc21` was tested. Which mutagenic call (Test System: AMES SALMONELLA TYPHIMURIUM, Strain/Indicator: TA98, Metabolic Activation: NONE, Method: STANDARD PLATE) did it give?
Answer: The mutagenic call was “active; positive”.

Question: And the mutagenic call (Test System: AMES SALMONELLA TYPHIMURIUM, Strain/Indicator: TA98, Metabolic Activation: RAT LIVER S-9, AROCLOR 1254, Method: STANDARD PLATE)?
Answer: The mutagenic call was “active; positive”.

Question: And the mutagenic call [2]?
Answer: The mutagenic call was “active; positive”.

Question: And the mutagenic call (Test System: AMES SALMONELLA TYPHIMURIUM, Strain/Indicator: TA100, Metabolic Activation: RAT LIVER S-9, AROCLOR 1254, Method: STANDARD PLATE)?
Answer: The mutagenic call was “active; positive”.

Question: Which results are given for `Clc1cccc2cccnc12`?
Answer: mutagenic call (Test System: AMES SALMONELLA TYPHIMURIUM, Strain/Indicator: TA100, Metabolic Activation: RAT, LIVER, S-9, PHENOBARBITAL AND 5,6-BENZOFLAVONE, Method: PREINCUBATION): active; positive; mutagenic call (Test System: AMES SALMONELLA TYPHIMURIUM, Strain/Indicator: TA100, Metabolic Activation: S-9, Method: PREINCUBATION): inactive; negative
